One may read the IC50 as the concentration that gives 50% inhibition.

The record followed here is ChEMBL document CHEMBL1201861, “Genomics of Drug Sensitity in Cancer screening data, Wellcome Trust Sanger Institute”.

Bounds are passed on as bounds.

Holding throughout (assay): cells
For one assay, the system named is NCI-H1838. Type of assay: functional, cell-based, Homo sapiens. Particulars: Homo sapiens, NCI-H1838.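 Also: growth inhibition of NCI-H1838 cells, determined with a cell viability readout.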
For a further assay, the system named is LS-513. The assay is classed as functional, cell-based, Homo sapiens. Particulars: Homo sapiens, LS-513.
The test system of another assay is MHH-PREB-1. Type of assay: functional, cell-based. As to conditions: Homo sapiens.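 Also: cell viability assay measuring inhibition of proliferation of human MHH-PREB-1 cells.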
The subject of the next assay is RKO. The assay is classed as functional, cell-based, Homo sapiens. As to conditions: Homo sapiens, RKO.
Another assay deals with SHP77. The assay is classed as functional, cell-based, Homo sapiens, SHP-77. Particulars: Homo sapiens, SHP77.
A further assay relates to CTB-1. Type of assay: functional, cell-based. As to conditions: Homo sapiens.
The next assay deals with RXF 393. Type of assay: functional, cell-based. Particulars: Homo sapiens.
A further assay has as its system RCC10RGB. The assay is classed as functional, cell-based, Homo sapiens. Particulars: Homo sapiens, RCC10RGB.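 Also: growth inhibition of human RCC10RGB cells, read out by a cell viability assay.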
For a further assay, the system named is ES5. Type of assay: functional, cell-based, Homo sapiens. Particulars: Homo sapiens, ES5.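 Also: growth inhibition of human ES5 cells, read out by a cell viability assay.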
The subject of the next assay is no-11. Type of assay: functional, cell-based, Homo sapiens. Particulars: Homo sapiens.
For a further assay, the system named is U-87 MG. The assay is classed as functional, cell-based, U-87MG ATCC. Particulars: Homo sapiens.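 Also: growth inhibition of the cells measured with a viability assay.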
Another assay has as its system Lu-65. The assay is classed as functional, cell-based. As to conditions: Homo sapiens.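 Also: growth inhibition of Lu-65 cancer cells, read out by a cell viability assay.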
The next assay relates to NTERA-2-cl-D1. The assay is classed as functional, cell-based, Homo sapiens. Particulars: Homo sapiens, NTERA-2-cl-D1.
For the next assay, the system named is U-266. Type of assay: functional, cell-based. Particulars: Homo sapiens.
The test system of the next assay is HDLM-2. Type of assay: functional, cell-based. Particulars: Homo sapiens.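 Also: cell viability assay measuring suppression of HDLM-2 proliferation.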
The next assay relates to CGTH-W-1. Type of assay: functional, cell-based, Homo sapiens. Particulars: Homo sapiens, CGTH-W-1.
For another assay, the system named is MC116. The assay is classed as functional, cell-based. Particulars: Homo sapiens.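 Also: growth inhibition of MC116 cells, read out with a cell viability assay.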
In a further assay the test system is HCE-T. Type of assay: functional, cell-based, Homo sapiens. Particulars: Homo sapiens, HCE-T.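 Also: cell viability assay read-out, reporting inhibition of HCE-T cell growth.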
The next assay has as its system KG-1. The assay is classed as functional, cell-based. As to conditions: Homo sapiens.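 Also: growth inhibition of KG-1 cells, read out by a cell viability assay.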
A further assay deals with NKM-1. The assay is classed as functional, cell-based. Particulars: Homo sapiens.
Another assay deals with A101D. The assay is classed as functional, cell-based, Homo sapiens. As to conditions: Homo sapiens, A101D.
The test system of the next assay is NCI-H747. The assay is classed as functional, cell-based. As to conditions: Homo sapiens.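 Also: growth inhibition of human NCI-H747 cells, read out by a cell viability assay.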
A further assay has as its system NCI-H510A. Type of assay: functional, cell-based. As to conditions: Homo sapiens.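 Also: growth inhibition of NCI-H510A cells, read out with a cell viability assay.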
The test system of another assay is no-10. The assay is classed as functional, cell-based, Homo sapiens. As to conditions: Homo sapiens.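 Also: growth inhibition of no-10 cells, read out with a cell viability assay.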

Description for A101D: SANGER: Inhibition of human A101D cell growth in a cell viability assay.
Description for CGTH-W-1: SANGER: Inhibition of human CGTH-W-1 cell growth in a cell viability assay.
Description for CTB-1: SANGER: Inhibition of human CTB-1 cell growth in a cell viability assay.
Description for HCE-T: SANGER: Inhibition of human HCE-T cell growth in a cell viability assay.
Description for HDLM-2: SANGER: Inhibition of human HDLM-2 cell growth in a cell viability assay.
Description for LS-513: SANGER: Inhibition of human LS-513 cell growth in a cell viability assay.
Description for Lu-65: SANGER: Inhibition of human LU-65 cell growth in a cell viability assay.
Description for MC116: SANGER: Inhibition of human MC116 cell growth in a cell viability assay.
Description for MHH-PREB-1: SANGER: Inhibition of human MHH-PREB-1 cell growth in a cell viability assay.
Description for NCI-H1838: SANGER: Inhibition of human NCI-H1838 cell growth in a cell viability assay.
Description for NTERA-2-cl-D1: SANGER: Inhibition of human NTERA-S-cl-D1 cell growth in a cell viability assay.
Description for RCC10RGB: SANGER: Inhibition of human RCC10RGB cell growth in a cell viability assay.
Description for SHP77: SANGER: Inhibition of human SHP-77 cell growth in a cell viability assay.
Description for U-266: SANGER: Inhibition of human U-266 cell growth in a cell viability assay.
Description for U-87 MG: SANGER: Inhibition of human U-87-MG cell growth in a cell viability assay.
Description for no-10: SANGER: Inhibition of human no-10 cell growth in a cell viability assay.
Description for no-11: SANGER: Inhibition of human no-11 cell growth in a cell viability assay.

In the case of `CC1=C2C[C@H]3[C@@H](CC=C4C[C@@H](O)CC[C@@]43C)[C@@H]2CC[C@]12O[C@@H]1C[C@H](C)CN[C@H]1[C@H]2C` [CYCLOPAMINE], the IC50 in the assay with NCI-H1838 was above 16 µM; in the assay on LS-513, 11.4 µM; with MHH-PREB-1 it was above 16 µM; in the assay on RKO, above 16 µM; in the assay on SHP77, above 16 µM; in the assay with CTB-1 it was above 16 µM. In addition, the IC50 in the assay with RXF 393, in the assay on RCC10RGB, in the assay with ES5, with no-11, in the assay on U-87 MG and in the assay on Lu-65 was above 16 µM each time. The IC50 in the assay on NTERA-2-cl-D1, with U-266, with HDLM-2, with CGTH-W-1, in the assay on MC116 and in the assay on HCE-T was above 16 µM throughout. Moreover, the IC50 in the assay with KG-1 was above 16 µM; in the assay with NKM-1 it was above 16 µM; in the assay on A101D it was above 16 µM; in the assay on NCI-H747, above 16 µM; in the assay on NCI-H510A it was above 16 µM; in the assay with no-10, 9.9 µM.

For `CN1CCN(CCOc2cc(OC3CCOCC3)c3c(Nc4c(Cl)ccc5c4OCO5)ncnc3c2)CC1` [SARACATINIB], the IC50 with NCI-H1838, in the assay on LS-513, with MHH-PREB-1, in the assay on RKO, in the assay on SHP77 and in the assay on CTB-1 was above 2 µM in each case. The IC50 in the assay on RXF 393 was 1.24 µM; in the assay with RCC10RGB, above 2 µM; in the assay with ES5, above 2 µM; in the assay on no-11, above 2 µM; in the assay with U-87 MG, above 2 µM; with Lu-65, above 2 µM. The IC50 in the assay on NTERA-2-cl-D1, in the assay with U-266, in the assay on HDLM-2, in the assay on CGTH-W-1, in the assay with MC116 and in the assay on HCE-T was above 2 µM in each case. Also, the IC50 with KG-1, in the assay on NKM-1, in the assay on A101D, with NCI-H747, in the assay on NCI-H510A and in the assay on no-10 was above 2 µM in each case.

Consider `CS(=O)(=O)CCNCc1ccc(-c2ccc3ncnc(Nc4ccc(OCc5cccc(F)c5)c(Cl)c4)c3c2)o1` [LAPATINIB], for which the IC50 in the assay with NCI-H1838, in the assay with LS-513, in the assay on MHH-PREB-1, in the assay with RKO, with SHP77 and in the assay on CTB-1 was above 2 µM throughout. Moreover, the IC50 in the assay on RXF 393, in the assay with RCC10RGB, in the assay on ES5, in the assay with no-11, in the assay on U-87 MG and in the assay on Lu-65 was above 2 µM each time. For the same compound, the IC50 with NTERA-2-cl-D1, in the assay on U-266, with HDLM-2, in the assay with CGTH-W-1, with MC116 and with HCE-T was above 2 µM each time. Also, the IC50 with KG-1, in the assay on NKM-1, in the assay with A101D, in the assay with NCI-H747, in the assay on NCI-H510A and in the assay on no-10 was above 2 µM each time.

`CCc1nc(N)nc(N)c1-c1ccc(Cl)cc1` [PYRIMETHAMINE]: the IC50 with NCI-H1838, in the assay with LS-513, with MHH-PREB-1, with RKO, in the assay on SHP77 and in the assay on CTB-1 was above 20 µM in each case. In addition, the IC50 in the assay on RXF 393 is above 20 µM; in the assay with RCC10RGB, above 20 µM; in the assay with ES5, above 20 µM; with no-11 it was above 20 µM; in the assay on U-87 MG, above 20 µM; in the assay on Lu-65, 11 µM. Besides, the IC50 is above 20 µM with NTERA-2-cl-D1; 5.13 µM in the assay with U-266; above 20 µM with HDLM-2; 17.5 µM in the assay with CGTH-W-1; 17.9 µM with MC116; above 20 µM with HCE-T. Besides, the IC50 in the assay with KG-1, in the assay with NKM-1, in the assay on A101D, with NCI-H747, in the assay with NCI-H510A and in the assay on no-10 was above 20 µM throughout.

For the compound `CNC(=O)c1cc(Oc2ccc(NC(=O)Nc3ccc(Cl)c(C(F)(F)F)c3)cc2)ccn1` [SORAFENIB], the IC50 in the assay with NCI-H1838, in the assay on LS-513, in the assay on MHH-PREB-1, in the assay with RKO, in the assay with SHP77 and in the assay on CTB-1 was above 4 µM in each case. Moreover, the IC50 with RXF 393, with RCC10RGB, in the assay on ES5, in the assay with no-11, with U-87 MG and with Lu-65 was above 4 µM each time. Besides, the IC50 in the assay on NTERA-2-cl-D1 is above 4 µM; in the assay on U-266 it was above 4 µM; in the assay with HDLM-2, above 4 µM; with CGTH-W-1 it was 0.25 µM; in the assay on MC116, above 4 µM; in the assay on HCE-T, above 4 µM. The IC50 in the assay with KG-1 is 1.48 µM; with NKM-1, 0.0742 µM; with A101D it was above 4 µM; in the assay on NCI-H747, above 4 µM; in the assay on NCI-H510A, above 4 µM; in the assay with no-10, 1.62 µM.

As for `O=C(/C=C/c1ccccc1)NC(NC(=S)Nc1cccc2cccnc12)C(Cl)(Cl)Cl` (stereo not drawn) [SALUBRINAL], the concentration for half-maximal inhibition (IC50) with NCI-H1838 was above 16 µM; in the assay on LS-513 it was above 16 µM; in the assay on MHH-PREB-1, 6.79 µM; with RKO, above 16 µM; with SHP77, above 16 µM; in the assay on CTB-1 it was above 16 µM. Moreover, the IC50 with RXF 393, in the assay on RCC10RGB, in the assay with ES5, in the assay with no-11, in the assay with U-87 MG and with Lu-65 was above 16 µM in each case. The IC50 with NTERA-2-cl-D1 was 12.9 µM; in the assay with U-266, above 16 µM; in the assay on HDLM-2 it was above 16 µM; with CGTH-W-1, above 16 µM; in the assay on MC116, 11.2 µM; in the assay with HCE-T, above 16 µM. For the same compound, the IC50 in the assay on KG-1 is above 16 µM; in the assay on NKM-1, 10.6 µM; in the assay with A101D, 13.8 µM; in the assay with NCI-H747, above 16 µM; with NCI-H510A it was 7.04 µM; in the assay with no-10, above 16 µM.

For `CCC(=O)N1CCN(c2ccc(-n3c(=O)ccc4cnc5ccc(-c6cnc7ccccc7c6)cc5c43)cc2C(F)(F)F)CC1` [TORIN1], the IC50 is above 1.2 µM in the assay with NCI-H1838; 0.391 µM in the assay with LS-513; 0.0182 µM in the assay with MHH-PREB-1; 0.0153 µM with RKO; above 1.2 µM in the assay on SHP77; 0.222 µM in the assay on CTB-1. In addition, the IC50 was 0.0946 µM with RXF 393; above 1.2 µM in the assay with RCC10RGB; above 1.2 µM in the assay with ES5; 0.014 µM in the assay on no-11; above 1.2 µM in the assay on U-87 MG; above 1.2 µM in the assay on Lu-65. In addition, the IC50 in the assay on NTERA-2-cl-D1 was 0.0323 µM; in the assay with U-266, 0.132 µM; in the assay with HDLM-2, above 1.2 µM; in the assay on CGTH-W-1, 0.184 µM; with MC116, 0.0268 µM; in the assay on HCE-T, 0.109 µM. For the same compound, the IC50 in the assay with KG-1 is above 1.2 µM; in the assay on NKM-1 it was 0.987 µM; in the assay with A101D it was 0.0265 µM; with NCI-H747, 0.0233 µM; in the assay with NCI-H510A it was 0.772 µM; in the assay on no-10, 0.0158 µM.
